Experimental data: publication PMC6656724 (Communications Biology, 2019)
Values joined by “and” are separate entries in the source; they are usually repeats but may differ in a detail not shown here. Equal entries are not always repeated.

How the values were obtained:
[1] = test system: KMO activity in the striatum; test: De novo 3-HK synthesis after intrastriatal [5-3H]-kynurenine; assay type: in vivo, Sprague–Dawley rats
Experimental: The prodrug (5 mg/kg) was administered intravenously to rats, immediately followed by an intrastriatal infusion of [^3H]-KYN. Tritiated KP metabolites were analysed after 1 h. A significant ~70% reduction (P < 0.01) in [^3H]-3-HK was observed (Fig. 3f) in parallel with minor increases in [^3H]-QUIN and […] (data not shown)—mirroring the results using a focal intracerebral injection of a KMO inhibitor[17].
The radioactive tracer method previously described by Guidetti et al. (1995)[31] was used to study acute KP metabolism in the brain in vivo. To this end, adult male Sprague–Dawley rats (weighing 270–300 g) were anesthetized with isoflurane using a vaporiser (induction dose 5%, maintenance dose 2%, v/v, in 100% oxygen) and placed in a stereotaxic frame. […] After thawing, tritiated KP metabolites were detected and analysed as described previously. The production of newly formed [^3H]-KYNA, [^3H]-3-HK and [^3H]-QUIN was expressed as a percentage of the total radioactivity recovered per striatum. […] The mobile phase was flown at 1.2 ml/min (Waters 515 HPLC Pump) through YMC-Pack Pro C18 (250 × 4.6 mm) column and detected with UV (Applied Biosystems 785A Absorbance Detector) at 254 nm then mixed with LabLogic FlowLogic U scintillation fluid flowing at 2.7 mL/min and radiation was detected (Berthold Technologies FlowStar LB514).

[2] = test system: HTT93Q flies (Drosophila melanogaster model of HD); test: Pseudopupil assay in Drosophila model of Huntington's disease; assay type: in vivo
From the text: To test the therapeutic efficacy of 1, we next employed a widely-used Drosophila melanogaster model of the inherited neurodegenerative disorder Huntington’s disease (HD)[30], which features pan-neuronal expression of a mutant huntingtin exon 1 fragment (HTT93Q). We have previously shown that several KMO inhibitors, including UPF 648 and Ro 61-8048, are neuroprotective in this Drosophila model. We thus tested the ability of 1 to ameliorate loss of photoreceptor neurons in the fly eye (rhabdomeres) using the pseudopupil assay. […] Although the efficacy of 1 may not be solely due to KMO inhibition in the fly, we have previously observed similar levels of neuroprotection with other KMO inhibitors.
Flies were kept on standard maize food at 25 °C with a 12:12 light/dark cycle. HTT93Q exon 1 expressing flies were generated by crossing female virgins carrying the UASHTT93Qexon1 transgene[30] (a gift of Larry Marsh and Leslie Thompson, University of California, Irvine) to males of elavGAL4 [c155] driver line, obtained from the Bloomington Drosophila Stock Center. For the drug feeding experiments, inhibitor 1 was dissolved in dimethylsulfoxide (DMSO) and added to maize media at the experimental concentrations. […] At day 7, rhabdomeres were scored as previously described. […] Rhabdomeres were examined using a Nikon Optiphot-2 light microscope, with ~ 80 ommatidia scored per fly.

[3] = Elimination in urine after intravenous administration; assay type: in vivo, female C57BL/6 mouse; conditions: mouse, 1 mg free base/kg i.v.
Experimental: Supplementary Table 8. Elimination of inhibitor 1 in urine following single
intravenous administration at 1 mg free base/kg to a female C57BL/6 mouse.
Time Absolute amount of drug Amount of drug in urine

CCOC(=O)CN1C(=O)COc2cc(C)c(Cl)c(C)c21 [1b]
Reduction in [3H]-3-HK ([1]; rat striatum, 5 mg/kg i.v., 1 h, vs vehicle): ~ 70%
Percentage of [5-3H]-KYN that is metabolized into [3H]-3-HK ([1]; striatum of awake rats, 1 h after 5 mg/kg i.v., single rats, listed as Prodrug 1b): 0.72% and 0.39% and 1.91% and 0.11% and 1.44% and 0.83% and 2.24% and 1.06% and 1.38% and 0.19%

Cc1cc2c(c(C)c1Cl)N(CC(=O)O)C(=O)CO2 [compound 1, (6-chloro-5,7-dimethyl-3-oxo-2,3-dihydro-4H-1,4-benzoxazin-4-yl) acetic acid]
Neurodegeneration prevented ([2]; HD flies, 100 μM, 7 days): ~ 57%
Reduction in neuron loss (rhabdomeres) ([2]; HTT93Q flies, 10 μM or 100 μM for 7 days, vs untreated or DMSO): significant dose-dependent reduction
Absolute amount of drug recovered in urine ([3]; 0 - 8 h): 8.67 µg
Amount of drug in urine recovered ([3]; 0 - 8 h): 30.3 % Dose
Absolute amount of drug recovered in urine ([3]; 8 - 24 h): 0.15 µg
Amount of drug in urine recovered ([3]; 8 - 24 h): 0.5 % Dose
